Test results: patent US20210330611A1, “THERAPY FOR NEUROLOGICAL DISEASES/DISORDERS” (priority 2020, published 2021)
Where “and” joins values, the source holds several entries; their conditions need not be identical. Identical values can stand only once. Counter-ions that a name gives are not always drawn. Like-named read-outs stand apart in the source and are kept apart here.

Key:
primary rat microglia [1] = experiment: Cell toxicity (dead cells, size <150 μm2) in coated fibrin (cFib) assay; settings: primary microglia HTS, fibrin assay, dead cells (size <150 μm2), compounds at 10 μM;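 also: share of dead cells sized under 150 µm2 at 10 µM in fibrin-stimulated microglia HTS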
primary rat microglia [2] = system: primary rat microglia
[3] = system: LPS-induced microglia activation; experiment: Image-based assay of LPS-induced microglia activation (HTS and dose response); format: cell-based, rat; settings: primary microglia HTS, LPS stimulation, compounds at 10 μM; for inhibition at 10 µM: Rattus norvegicus, Microglia, read-out: LPS % inhibition
[4] = system: fibrin- and LPS-induced microglia activation; experiment: cells; format: cell-based, rat; settings: classification by fibrin and LPS inhibition, HTS at 10 μM
[5] = system: fibrin-induced microglia activation; experiment: Image-based assay of fibrin-induced microglia activation (HTS and dose response); format: cell-based, rat; settings: primary microglia HTS, fibrin stimulation, compounds at 10 μM; for inhibition at 10 µM: Rattus norvegicus, Microglia, read-out: Fibrin % inhibition

Structure (SMILES)	Fibrin % cell toxicity (primary rat microglia [1]) [%]	LPS % cell toxicity (primary rat microglia [2]; rat) [%]	inhibition at 10 µM [3] [%]	Quadrant (FIG. 5b) [4]	inhibition at 10 µM [5] [%]	LPS % inhibition ([3]; 10 µM)	Fibrin % inhibition ([5]; 10 µM)	LPS % cell toxicity (primary rat microglia [2]) [%]	LPS % inhibition [3] [%]	Fibrin % inhibition [5] [%]
Cc1c(OCC(F)(F)F)ccnc1C[S@@+]([O-])c1nc2ccccc2[nH]1 [Dexlansoprazole]	0	0	-12	Q4	-23					
CC(C)(CO)[C@@H](O)C(=O)NCCCO [Dexpanthenol]	0	0	11	Q4	-1					
COc1ccc2c(c1)[C@]13CCCC[C@@H]1[C@H](C2)N(C)CC3 [Dextromethorphan]	1	0		Q4		4% and −5%	−18% and −20%			
CCC(=O)O[C@](Cc1ccccc1)(c1ccccc1)[C@H](C)CN(C)C [Dextropropoxyphene]	1	0	15	Q4	-25					
CC(=O)Oc1cccc2c1C(=O)c1c(OC(C)=O)cc(C(=O)O)cc1C2=O [Diacerin]	1			Q4				0	10	−30
CC(=O)Nc1ccc(OC(C)=O)cc1 [Diacetamate]	1	0	21	Q4	-25					
CCOP(=S)(OCC)Oc1cc(C)nc(C(C)C)n1 [Diazinon, Dimpylate]	1			Q4				0	−8	−7
CC1=NS(=O)(=O)c2cc(Cl)ccc2N1 [Diazoxide]	0	0	24	Q4	3					
c1ccc2c(c1)sc1ccccc12 [Dibenzothiophene]	0	0	14	Q4	-21					
CCCCOC(=O)c1ccccc1C(=O)OCCCC [Dibutyl Phthalate]	1	0	9	Q4	-30					
Oc1ccc(Cl)cc1Cc1cc(Cl)ccc1O [Dichlorophene, Dichlorophen]	1			Q4				0	15	−23
N#CC(c1ccc(Cl)cc1)c1c(Cl)cc(-n2ncc(=O)[nH]c2=O)cc1Cl (centres unmarked) [Diclazuril]	1	0	21	Q4	48					
Cc1onc(-c2c(Cl)cccc2Cl)c1C(=O)N[C@@H]1C(=O)N2[C@@H]1SC(C)(C)[C@@H]2C(=O)O [Dicloxacillin]	0	0	14	Q4	-23					
C/C=C(/C(=C/C)c1ccc(O)cc1)c1ccc(O)cc1 [Dienestrol]	1	0	21	Q4	17					
CCN(CC)C(=O)N1CCN(C)CC1 [Diethylcarbamazine]	0	0	11	Q4	-26					
CN1CCN(c2cc3c(cc2F)c(=O)c(C(=O)O)cn3-c2ccc(F)cc2)CC1 [Difloxacin Hydrochloride]	1	1	33	Q4	25					
